Like-named read-outs stand apart in the source and are kept apart here.
Target: T1, Recombinant KAT6A/MOZ (488-778) protein (Homo sapiens, UniProt Q92794)
T1 construct: Recombinant KAT6A/MOZ (488-778) protein (Active motif, Catalog #81223); purchased Active Motif 81223
Experiment: Kat6a AlphaLISA Inhibition Screening Assay
Type: biochemical
Procedure: The Kat6a inhibitory activity of test compounds was determined using an Alpha Screen-based detection method. The assay reactions were conducted in a volume of 10 μL in Alpha Plate, White 384 well plate (cat #6008280, Perkin Elmer). The enzymatic reactions were performed in assay buffer pH 8.0 (50 mM Tris-HCl, 0.1 mM EDTA, 0.01% Tween-20, 1 mM Dithiothreitol, 0.1% BSA (fatty acid free) and 330 nM TSA (Trichostatin A)). 10 μL reaction volume consisting of 25 nM of Recombinant KAT6A/MOZ (488-778) protein (Active motif, Catalog #81223), 400 nM Acetyl coenzyme A (Catalog #A2056, Sigma), 200 nM of Histone H3 peptide [(amino acids 1-21), biotin-labeled (BPS Biosciences, Catalog #52011,)] and a 10-point dose response curve for test/tool compounds were prepared. Enzyme and compounds solution were pre-incubated in assay plate for 60 or 10 min at room temperature then substrate and Acetyl coenzyme A solution were added to the plate. After addition, the plate was sealed with adhesive seals and incubated for 120 minutes at room temperature.
After 120 minutes of incubation, 5 μL (10 μg/mL) of AlphaLISA anti-acetyl-Lysine acceptor beads (Perkin Elmer, Catalog #AL143C) were added to the plate and it was incubated for 60 minutes at room temperature. Then 10 μL (10 μg/mL) of Alpha Streptavidin donor beads (Perkin Elmer, Catalog #6760002S) were added to the plate which was further incubated for 60 minutes at room temperature. After incubation, the alpha signal was recorded by using Perkin Elmer Envision multi-mode reader.
NA means the compound was not active at the concentration tested. […] NT means not tested.

[1] = 60′ pre-incubation, Table 3, read-out: Kat6A Biochemical assay: IC50
[2] = 60′ pre-incubation, Table 2, read-out: Kat6A biochemical assay: IC50

T1 sequence (Q92794 488-778): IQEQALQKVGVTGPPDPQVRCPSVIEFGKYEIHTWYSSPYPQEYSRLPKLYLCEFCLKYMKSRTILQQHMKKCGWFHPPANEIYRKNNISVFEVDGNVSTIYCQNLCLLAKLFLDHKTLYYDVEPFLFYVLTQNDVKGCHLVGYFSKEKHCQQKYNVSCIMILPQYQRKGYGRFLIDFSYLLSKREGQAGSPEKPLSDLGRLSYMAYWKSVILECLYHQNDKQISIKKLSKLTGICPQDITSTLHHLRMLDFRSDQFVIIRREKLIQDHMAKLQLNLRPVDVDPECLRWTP

Row | Structure (SMILES) | IC50 [1] [µM] | IC50 [2] [µM] | further results
1 | COc1cc(Cn2cc(CN)cn2)cc2onc(NS(=O)(=O)CC3CCCCC3)c12 [compound 130] | – | – | IC50 (10′ pre-incubation, Table 3, read-out: Kat6A Biochemical assay: IC50): ≤ 10 µM
2 | C=CC(=O)N1Cc2cnn(Cc3cc(OC)c4c(NS(=O)(=O)CC5CCCCC5)noc4c3)c2C1 [Synthetic Example 29A, N-(6-((5-acryloyl-5,6-dihydropyrrolo[3,4-c]pyrazol-1(4H)-yl)methyl)-4-methoxybenzo[d]isoxazol-3-yl)-1-cyclohexylmethanesulfonamide] | – | ≤ 10 | –
3 | C#CC(=O)N1CC[C@@H](OCc2cc(OC)c3c(NS(=O)(=O)c4cc(CC)ccc4OC)noc3c2)C1 [compound 110, (R)-5-ethyl-2-methoxy-N-(4-methoxy-6-(((1-propioloylpyrrolidin-3-yl)oxy)methyl)benzo[d]isoxazol-3-yl) benzenesulfonamide] | ≤ 10 | – | –
4 | CCC(=O)NCc1ccn(Cc2cc(OC)c3c(NS(=O)(=O)CC4CCCCC4)noc3c2)n1 [Synthetic Example 9, N-((1-((3-((cyclohexylmethyl)sulfonamido)-4-methoxybenzo[d]isoxazol-6-yl)methyl)-1H-pyrazol-3-yl)methyl)propionamide] | – | – | IC50 (10′ pre-incubation, Table 2, read-out: Kat6A biochemical assay: IC50): ≤ 10 µM
5 | C#CC(=O)NCc1cnn(Cc2cc(OC)c3c(NS(=O)(=O)c4ccc(C(=O)NC)cc4OC)noc3c2)c1 [Synthetic Example 46, 3-methoxy-4-(N-(4-methoxy-6-((4-(propiolamidomethyl)-1H-pyrazol-1-yl)methyl)benzo[d]isoxazol-3-yl)sulfamoyl)-N-methylbenzamide] | – | ≤ 10 | –
6 | C=CS(=O)(=O)N1Cc2cnn(Cc3cc(OC)c4c(NS(=O)(=O)c5ccccc5OC)noc4c3)c2C1 [Synthetic Example 27A, 2-methoxy-N-(4-methoxy-6-((5-(vinylsulfonyl)-5,6-dihydropyrrolo[3,4-c]pyrazol-1(4H)-yl)methyl)benzo[d]isoxazol-3-yl)benzenesulfonamide] | – | ≤ 10 | –
7 | C#CC(=O)N1C[C@H]2CN(Cc3cc(OC)c4c(NS(=O)(=O)c5ccccc5OC)noc4c3)C[C@H]2C1 [Synthetic Example 44, 2-methoxy-N-(4-methoxy-6-(((3aR,6aS)-5-propioloylhexahydropyrrolo[3,4-c]pyrrol-2(1H)-yl)methyl)benzo[d]isoxazol-3-yl)benzenesulfonamide] | – | ≤ 10 | –
8 | C=CS(=O)(=O)NCc1ccn(Cc2cc(OC)c3c(NS(=O)(=O)c4ccccc4OC)noc3c2)n1 [Synthetic Example 22, 2-methoxy-N-(4-methoxy-6-((3-(vinylsulfonamidomethyl)-1H-pyrazol-1-yl)methyl)benzo[d]isoxazol-3-yl)benzenesulfonamide] | – | ≤ 10 | –

Further lines, with some results ahead:

Row | IC50 [1] [µM] | IC50 [2] [µM] | Structure (SMILES) | further results
9 | ≤ 10 | – | C=CS(=O)(=O)NCc1cnn(Cc2cc(OC)c3c(NS(=O)(=O)c4cc(CC)ccc4OC)noc3c2)c1 [compound 81, 5-ethyl-2-methoxy-N-(4-methoxy-6-((4-(vinylsulfonamidomethyl)-1H-pyrazol-1-yl)methyl)benzo[d]isoxazol-3-yl)benzenesulfonamide] | –
10 | – | ≤ 10 | C#CC(=O)NCc1cnn(Cc2cc(OC)c3c(NS(=O)(=O)c4cccc(C(=O)NC)c4)noc3c2)c1 [Synthetic Example 52, 3-(N-(4-methoxy-6-((4-(propiolamidomethyl)-1H-pyrazol-1-yl)methyl)benzo[d]isoxazol-3-yl)sulfonyl)-N-methylbenzamide] | –
11 | ≤ 10 | – | C#CC(=O)N1CCC(c2ccnc(-c3cc(C)cc(C(=O)NNS(=O)(=O)c4ccccc4F)c3)c2)C1 (stereo not drawn) [compound 92, 2-fluoro-N′-(3-methyl-5-(4-(1-propioloylpyrrolidin-3-yl)pyridin-2-yl)benzoyl)benzenesulfonohydrazide] | –
12 | ≤ 10 | – | COc1ccccc1S(=O)(=O)Nc1noc2cc(Cn3cc(CNS(=O)(=O)c4ccc(F)cc4)cn3)cc(OC)c12 [compound 78, N-(6-((4-(((4-fluorophenyl)sulfonamido)methyl)-1H-pyrazol-1-yl)methyl)-4-methoxybenzo[d]isoxazol-3-yl)-2-methoxybenzenesulfonamide] | –

Source: patent US11976075B2, “Inhibitors of the MYST family of lysine acetyl transferases” (Isosterix, Inc., priority 2022, dated 2024)
